The values below come from paper PMC8191290, “Substrate specificities and reaction kinetics of the yeast oligosaccharyltransferase isoforms” (The Journal of Biological Chemistry, 2021).

Test [1] deals with T1, OST3 complex (Saccharomyces cerevisiae, UniProt P39007).
T1 construct: were purified separately from strains expressing only one type of complex; made in house; host or cells: Saccharomyces cerevisiae, BY4742-derived strain ost6::LEU2MX6 OST4-1D4::kanMX6 YEp352-OST3
In words: In vitro glycosylation assay, kinetic parameters for acceptor peptides, OST3 complex. Format: biochemical. The note with it: for Km: 10 mM MnCl2, pH 7.5, 30 °C, UPLC TAMRA fluorescence, read-out: KM (apparent); for Km / kcat (apparent): n = 3; for kcat (apparent): 30 °C. On the procedure:
Figure 2 In vitro glycosylation assay for OST activity and peptide sequence preferences.A, schematic representation of the in vitro reaction setup for yeast OST activity. The peptide substrate containing the glycosylation sequon N-X-(S/T) is labeled with the TAMRA fluorophore at the N-terminus. Incubation with OST, synthetic LLO, and a divalent metal ion (Mn^2+preferred) results in the transfer of the sugar moiety (two GlcNAcs, blue squares) from the LLO to the fluorescently labeled peptide, yielding a glycopeptide product. B, measurement and analysis of the in vitro assay shown in A. Fluorescently labeled peptide (P) substrate and glycopeptide (GP) product are separated by reverse-phase chromatography using UPLC. The glycopeptide elutes earlier than the peptide and amounts of glycopeptide are quantified at different reaction time points by peak integration. C, quantification of kinetic parameters for synthetic peptide TAMRA-DANYTK. Reactions were performed with 2.8 μg purified extract containing OST3 complex before size-exclusion chromatography (approximately 1 μM OST3 complex), 150 μM LLO C20, and varying concentrations of the peptide. Glycopeptide product was measured by UPLC and turnover rates were determined by linear regression of the initial phase of the reaction and taking into account the enzyme concentration. The mean of three reactions is shown and the data were fitted by nonlinear regression according to the Michaelis–Menten formula (R^2 = 0.9803) using Prism. Error bars indicate standard deviations from the mean (n = 3). D, screening glycosylatable peptides derived from highly glycosylated yeast sequences. Reactions were performed with 0.4 μM purified OST3 complex, 150 μM LLO C20, 25 μM TAMRA-DANYTK, and 25 μM unlabeled competitor peptide. TAMRA-DANYTK glycopeptide product formed after 30 min was measured by UPLC and % inhibition was determined relative to a control reaction containing no unlabeled competitor peptide. E, quantification of kinetic parameters for synthetic peptide TAMRA-YANATS. Reactions were performed with 0.1 μM purified OST3 complex, 100 μM LLO C20, and varying concentrations of the peptide. Turnover rates were determined as in C. The mean of three reactions is shown and the data were fitted by nonlinear regression according to the Michaelis–Menten formula (R^2 = 0.9794) using Prism. Error bars indicate standard deviations from the mean (n = 3). P, phosphate; TAMRA, tetramethylrhodamine.
(§1) TAMRA-labeled peptides with 5-TAMRA at the N-terminus and an amide group at the C-terminus were synthesized by WatsonBio Sciences. Unlabeled peptides (Table S1) were synthesized by Genscript Corp. and were designed so that the asparagine of the glycosylation sequon was in the middle (except for Peptide 8). Lyophilized peptides were dissolved in dimethyl sulfoxide (DMSO), unless specified otherwise, to a 3 mM stock solution and further diluted in ddH2O for reactions.
(§2) Reactions were performed in a total volume of 10 μl containing the specified amount of TAMRA-labeled peptide, synthetic LLO analog, 10 mM MnCl2, and purified OST after size-exclusion chromatography in purification buffer (50 mM Hepes, pH 7.5, 150 mM NaCl, 1 mM MgCl2, 1 mM MnCl2, 10% (v/v) glycerol, 0.03% (w/v) DDM, and 0.006% (w/v) CHS). The concentration of OST was calculated using the molecular weight of 280 kDa. The reaction mixture was preincubated at 30 °C for 5 min before adding the peptide to start the reaction that proceeded at 30 °C. Time points were taken such that the reaction was in the linear phase. At each time point, 1 μl reaction mixture was taken and the reaction was stopped by dilution in stop solution (0.1% FA in 10% ACN, 10 mM KPO4 pH 8.0) such that the final peptide concentration was 2 μM.
Samples were analyzed by reverse-phase chromatography using a UPLC Dionex UltiMate 3000 with an Accucore 150-C18 100 × 2.1 mm 2.6 μm column (Thermo Fisher Scientific). […]

For test [2], the target named is T1, OST3 complex. In words: Turnover of synthetic TAMRA-labeled peptides. Format: biochemical. To be noted: for Turnover after 5 min / Glycopeptide detected / Relative turnover: 0.5 µM OST3 complex, 20 µM peptide; for Turnover after 5 min / Relative turnover: 150 µM LLO C20; for Glycopeptide detected: 150 µM LLO C20, 5 min; for Relative turnover: TAMRA-DANYTK turnover defined as 100 %, 5 min. The procedure:
as §1, §2
Samples were analyzed by reverse-phase chromatography using a UPLC Dionex UltiMate 3000 with an Accucore 150-C18 100 × 2.1 mm 2.6 μm column (Thermo Fisher Scientific). One microliter sample (2 pmol of peptide) was injected and measured by isocratic elution using a certain proportion of ACN (15% ACN for peptide TAMRA-DANYTK; 20% ACN for peptide TAMRA-YANATS) in 10 mM KPO4, pH 8.0 buffer so that the glycopeptide and peptide are fully separated and elute within 3 min at a constant flow rate of 0.7 ml/min, with a column temperature of 45 °C. The peptide and glycopeptide were detected through TAMRA fluorescence (excitation wavelength: 546 nm; emission wavelength: 579 nm).
The UPLC profiles were analyzed by integrating the peaks corresponding to the glycopeptide and peptide using Chromeleon 7 (Dionex) and calculating the amount of glycopeptide formed using the following equation, as previously described ([43]): [GP]=PeakareaGP/PeakareaP+PeakareaGP×[P] […]
Supp. Table 2. Turnover of synthetic TAMRA-labeled peptides
Peptide Glycopeptide Turnover after 5 min Relative turnover […]
TAMRA, tetramethylrhodamine
Turnover of TAMRA-labeled peptides after 5 min was determined using 0.5 µM OST3 complex, 20 µM indicated peptide and 150 µM LLO C20. Relative turnover compared to TAMRA-DANYTK is given by defining TAMRA-DANYTK turnover as 100 %.

The mark [3] stands for this setting: 0.1 μM purified OST3 complex, 100 μM LLO C20, 10–500 μM peptide.

Read-outs that look alike come from different tables or passages of the source.

Consider “TAMRA-DANYTK-NH2 [fluorescently labeled hexapeptide TAMRA-DANYTK-NH2 as the acceptor peptide, reference compound]”, for which the kcat/KM in test [1] (2.8 μg purified extract (approx. 1 μM OST3 complex), 150 μM LLO C20) worked out at 0.02 min^-1 μM^−s1. Besides, the Km (commonly the concentration of substrate that gives half-maximal velocity) in test [1] (2.8 μg purified extract (approx. 1 μM OST3 complex, before SEC), 150 μM LLO C20, 10–400 μM peptide, saturation not reached, listed as TAMRA-DANYTK-NH2) was roughly 200 µM. The Michaelis constant (Km) in test [1] (2.8 μg purified extract (approx. 1 μM OST3 complex, before SEC), 150 μM LLO C20, 10–400 μM peptide, saturation not reached) turned out to be 201 ± 51.3 µM. Also, in test [1] (2.8 μg purified extract (approx. 1 μM OST3 complex, before SEC), 150 μM LLO C20, 10–400 μM peptide), the “kcat (apparent)” value turned out to be 0.065 ± 0.01 s⁻¹. In test [2], the “Turnover after 5 min” value was found to be 6%, the Glycopeptide detected entry was “Yes” and the Relative turnover was 100%.
For “TAMRA-YANATS [shorter version of Peptide 5 of only six amino acid residues (TAMRA-YANATS)]”, in test [1] (0.1 μM purified OST3 complex, 100 μM LLO C20), the kcat/KM was 0.26 min^-1 μM^−s1. Besides, in test [1] (setting [3]), the Michaelis-Menten constant (Km) stood at 55.6 ± 6.5 µM and the “kcat (apparent)” value is 0.242 ± 0.012 s⁻¹. Besides, in test [1] (OST3 complex), the “specificity relative to TAMRA-DANYTK” value was “over ten times more specific”. In addition, the “fold lower apparent KM” value in test [1] (OST3 complex, relative to TAMRA-DANYTK) was 3.5 fold. For the same substance, in test [2], the “Turnover after 5 min” value was determined as 84%, the Glycopeptide detected entry is recorded as “Yes” and the Relative turnover was 1400%. In test [2] (OST3 complex, initial turnover, relative to TAMRA-DANYTK), the “times faster glycosylation than TAMRA-DANYTK” value amounted to 14 times.
